The supplement of paper PMC10307832

Legend:
Test in all cases: relative viability (nuclei count vs DMSO), 5 days (fraction); higher = more cells survive
[1] = compound: Cc1nc(C(=O)NCC(=O)O)c(O)c2ccc(Oc3ccccc3)cc12 [FG-4592] + CC(=O)c1c(C)c2cnc(Nc3ccc(N4CCNCC4)cn3)nc2n(C2CCCC2)c1=O [Palbociclib] (partner 0.5 µM)
Summary of the method: (§1)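 Relative viability divides the nuclei count in treated wells by that in vehicle wells. Lung cancer cell lines were seeded in 1536-well plates, dosed by pin tool the next day, and fixed and stained after 5 days in one step with final 0.05% Triton X-100, 1% formaldehyde and 1 ug/ml Hoechst. Dosing was a single drug or a fixed anchor-drug dose plus five library-drug doses (not always all listed) in √10 steps, and values are medians of duplicate plates imaged at 4×.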

[2] = compound: Cc1nc(C(=O)NCC(=O)O)c(O)c2ccc(Oc3ccccc3)cc12 [FG-4592] + NC(=O)Nc1cc(-c2cccc(F)c2)sc1C(=O)N[C@H]1CCCNC1 [AZD7762] (partner 0.2 µM)
Summary of the method: as §1

[3] = compound: CC1=CC(=C(N1C2=CC=C(C=C2)Cl)C)C(=O)CN3CCCCC3 [IU1-47] + Cc1nc(NC(=O)N2CCC[C@H]2C(N)=O)sc1-c1ccnc(C(C)(C)C(F)(F)F)c1 [Alpelisib] (partner 2 µM)
Summary of the method: as §1

[4] = compound: Cc1nc(C(=O)NCC(=O)O)c(O)c2ccc(Oc3ccccc3)cc12 [FG-4592] + CC(C)C[C@H](NC(=O)[C@H](Cc1ccccc1)NC(=O)c1cnccn1)B(O)O [Bortezomib] (partner 0.002 µM)
Summary of the method: as §1

Cell Line	relative viability ([1]; first compound 0.08 µM)	relative viability ([1]; first compound 0.253 µM)	relative viability ([1]; first compound 2.53 µM)	relative viability ([1]; first compound 8 µM)	relative viability ([2]; first compound 0.08 µM)	relative viability ([2]; first compound 0.253 µM)	relative viability ([2]; first compound 0.8 µM)	relative viability ([2]; first compound 2.53 µM)	relative viability ([2]; first compound 8 µM)	relative viability ([3]; first compound 0.08 µM)	relative viability ([3]; first compound 0.253 µM)	relative viability ([3]; first compound 0.8 µM)	relative viability ([3]; first compound 8 µM)	relative viability ([4]; first compound 0.08 µM)	relative viability ([4]; first compound 0.8 µM)	relative viability ([4]; first compound 2.53 µM)	relative viability ([4]; first compound 8 µM)	relative viability ([1]; first compound 0.8 µM)	relative viability ([3]; first compound 2.53 µM)	relative viability ([4]; first compound 0.253 µM)
ABC-1	0.718	0.503	0.537	0.437	0.665	0.762	0.794	1.09	0.693	1.12	1.3	0.977	1.1	0.365	0.308	0.359	0.22	–	–	–
NCI-H2347	0.421	0.433	0.454	0.407	0.72	0.546	0.724	0.85	0.744	0.958	1.05	1.11	1.11	–	0.806	0.782	1.14	0.41	1.05	0.623
NCI-H1993	0.689	0.515	0.691	0.563	0.769	0.723	–	0.892	0.56	0.753	0.728	0.657	0.594	1.12	1.06	1.25	0.894	–	0.725	0.828
NCI-H322M	–	0.455	0.465	0.483	–	0.518	0.497	0.629	0.43	0.802	0.82	0.805	0.831	1.37	1.17	1.25	1.3	0.444	0.755	1.18
NCI-H838	0.192	0.218	0.218	0.174	0.899	0.888	0.976	0.981	0.916	1.04	1.03	1.05	0.859	0.893	0.697	0.663	0.747	0.198	1.08	0.923
HARA	0.276	0.191	0.286	0.25	–	–	–	0.251	0.431	1.02	1.13	0.925	0.604	1.03	–	1.08	1.11	0.261	1.1	1.01
NCI-H2087	0.284	0.203	–	0.187	1.34	1.24	1.32	–	1.38	1.23	1.01	1.15	0.909	0.775	0.983	0.832	0.789	0.198	1.21	0.864
NCI-H1437	0.313	0.314	0.312	0.243	1.19	1.08	1.17	0.995	1.08	1.13	0.967	0.921	0.718	0.537	0.63	0.458	0.378	0.299	1.05	0.581
NCI-H1792	0.493	0.614	0.661	0.684	0.81	0.637	–	0.834	0.654	0.824	0.708	0.647	0.55	0.985	0.998	0.883	0.923	0.689	0.444	0.753
NCI-H650	0.338	0.264	0.321	0.263	1.06	1.03	1.09	1.04	0.755	1.28	1.14	1.2	1.01	0.903	0.525	0.66	0.807	0.327	1.09	0.771
201T	0.349	0.362	0.36	0.341	0.579	0.595	0.453	0.559	0.555	1.08	1.04	0.938	1.04	1.11	1.04	1.1	1.08	0.341	–	1.12
HCC-44	0.923	0.954	0.943	0.97	0.993	1.01	1.16	1.06	0.997	0.942	0.822	0.783	0.78	0.817	0.946	0.921	0.889	0.91	0.825	0.894
H3255	0.326	0.293	0.317	0.304	0.902	0.802	0.995	0.754	0.831	0.696	0.708	0.754	0.671	0.816	0.752	0.744	0.906	0.299	0.818	0.606
NCI-H647	0.422	0.416	0.374	0.175	0.431	0.429	0.367	0.422	0.532	1.18	1.21	1.19	0.383	0.977	0.844	0.912	0.958	0.366	1.07	0.846
NCI-H23	0.628	0.45	0.547	0.453	0.243	0.257	0.206	0.285	0.164	0.703	0.881	0.723	0.824	0.922	0.962	0.834	0.826	0.501	0.777	0.977
NCI-H460	0.204	0.168	0.155	0.119	0.698	0.583	0.462	0.725	0.668	0.564	0.575	0.532	0.488	1.13	1.22	1.05	1.34	0.173	0.587	1.04
EKVX	0.358	0.398	0.401	0.29	0.732	0.628	0.758	0.665	0.747	1.21	1.08	1.04	0.741	1.1	1.06	1.17	0.885	0.355	1.12	0.94

Cell Line	relative viability ([1]; first compound 0.08 µM)	relative viability ([1]; first compound 0.253 µM)	relative viability ([1]; first compound 2.53 µM)	relative viability ([1]; first compound 8 µM)	relative viability ([2]; first compound 0.08 µM)	relative viability ([2]; first compound 0.253 µM)	relative viability ([2]; first compound 0.8 µM)	relative viability ([2]; first compound 2.53 µM)	relative viability ([2]; first compound 8 µM)	relative viability ([3]; first compound 0.08 µM)	relative viability ([3]; first compound 0.253 µM)	relative viability ([3]; first compound 0.8 µM)	relative viability ([3]; first compound 8 µM)	relative viability ([4]; first compound 0.08 µM)	relative viability ([4]; first compound 0.8 µM)	relative viability ([4]; first compound 2.53 µM)	relative viability ([4]; first compound 8 µM)	relative viability ([1]; first compound 0.8 µM)	relative viability ([3]; first compound 2.53 µM)	relative viability ([4]; first compound 0.253 µM)
EPLC-272H	0.323	0.289	0.378	0.283	0.194	0.426	0.224	0.181	0.15	0.888	0.834	0.859	0.953	0.897	0.7	0.979	0.799	0.327	–	0.712
NCI-H2126	0.335	0.358	0.372	0.334	1.04	0.951	0.918	1.06	1.01	0.759	0.814	0.78	0.707	1.09	1.12	1.12	1.13	0.324	0.55	1.1
LXF-289	0.551	0.563	0.588	0.603	1.12	1.01	1.27	1.08	1.34	1.06	1.09	1.12	1.05	1.02	1.05	0.97	0.973	0.615	1.06	0.886
NCI-H2405	0.454	0.449	0.46	0.442	0.659	0.642	0.756	0.649	0.592	0.795	0.761	0.749	0.768	0.906	0.998	0.922	0.952	0.48	–	0.894
NCI-H1755	0.476	0.446	0.471	0.463	0.408	0.621	0.361	0.491	0.446	1.04	1.03	1.03	0.8	0.918	0.907	1.02	0.998	0.409	0.978	1.01
HCC-78	0.468	0.486	0.453	0.438	0.558	–	0.534	0.625	0.662	0.387	0.319	0.391	0.294	0.558	0.406	0.453	0.371	0.465	0.327	0.51
LOU-NH91	0.534	0.514	0.517	0.544	0.755	0.733	0.717	0.723	0.732	0.761	0.75	0.71	0.668	0.509	0.48	0.455	0.568	0.54	0.692	0.49
NCI-H3122	0.194	0.203	0.216	0.197	0.985	0.922	1.06	1.02	0.952	0.82	1.02	0.97	0.724	1.03	1.13	1.07	1.07	0.168	0.967	1.02
HCC-827	0.438	0.417	0.507	0.467	0.23	0.173	0.326	0.184	0.22	1.08	1.05	0.91	0.905	1.04	1.23	0.983	0.939	0.402	1.1	0.947
NCI-H1975	0.511	0.534	0.437	0.379	0.782	0.644	0.684	0.712	0.709	0.684	0.619	0.708	0.444	0.369	0.34	0.4	0.307	0.53	0.659	0.318
NCI-H1651	0.522	0.488	0.518	0.458	0.474	0.455	0.433	0.442	0.455	1.05	1.1	0.899	0.597	0.834	1.02	0.893	0.856	0.488	–	0.826
NCI-H441	0.226	0.214	0.226	0.186	1.26	0.852	1.46	1	0.978	0.672	0.82	0.616	0.779	0.272	0.356	0.44	0.367	0.208	0.92	0.647
LCLC-103H	0.474	0.408	0.467	0.454	0.609	0.741	0.635	0.785	0.686	0.854	0.989	0.983	1.05	1.04	1.02	1.09	1.15	0.414	0.914	1.01
LCLC-97TM1	0.254	0.215	0.181	0.191	0.255	0.173	0.274	0.132	0.315	0.276	0.248	0.249	0.242	0.77	0.884	0.71	0.301	–	–	0.522
NCI-H727	0.674	0.589	0.659	0.626	0.51	0.555	0.763	0.563	0.482	0.712	–	0.647	0.377	0.738	0.83	0.797	1.07	0.575	0.626	0.698
NCI-H1355	0.394	0.38	0.382	0.356	0.907	0.669	–	0.809	0.723	0.89	0.948	0.894	0.79	1.2	–	1.1	1.25	–	0.797	1.15
